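Cells were grown in 96-well plates and exposed to each compound for 48 hours at five concentrations; endpoints were interpolated linearly between bracketing concentrations, or set to the highest concentration if not reached. GI50: concentration for 50% inhibition of growth.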 The source made the active and inactive calls. Cut-off read from the data, not from the text of the source: active = GI50 up to about 1.1 µM and inactive = higher.
Key:
Assay in all cases: NCI tumour cell line growth inhibition, 48 h
[1] = tested on: EKVX
[2] = tested on: OVCAR-3
[3] = tested on: ACHN
[4] = tested on: LOX IMVI
[5] = tested on: UACC-257
[6] = tested on: UACC-62
[7] = tested on: HOP-62
[8] = tested on: SW-620
[9] = tested on: CAKI-1
[10] = tested on: OVCAR-4
[11] = tested on: Malme-3M
[12] = tested on: M14
[13] = tested on: SK-MEL-5
[14] = tested on: HCT-116
[15] = tested on: OVCAR-5
[16] = tested on: HT-29
[17] = tested on: SNB-75
[18] = tested on: TK-10
[19] = tested on: SK-OV-3

Measured: GI50

Cc1cc(O)c2c(c1)OC1(C)CCC3C(C)(C)CCCC34COC2C14 (stereo not drawn)
inactive: [1] 11.9 µM | [2] 13.4 µM | [3] 12.7 µM | [4] 14 µM | [5] 15.5 µM | [6] 19.2 µM | [7] 14.1 µM | [8] 15.5 µM | [9] 18.3 µM | [10] 18.6 µM | [11] 13.3 µM | [12] 14.4 µM | [13] 14.4 µM | [14] 14.3 µM | [15] 14.7 µM

C=C/C(C)=C\CC1[C@](C)(O)CC[C@H]2C(C)(C)C(O)CC[C@]12C (stereo partly drawn)
inactive: [1] > 100 µM | [2] 92.3 µM | [3] > 100 µM | [4] > 100 µM | [5] > 100 µM | [6] > 100 µM | [16] 44.3 µM | [8] > 100 µM | [17] > 100 µM | [9] > 100 µM | [10] > 100 µM | [11] > 100 µM | [18] > 100 µM | [12] > 100 µM | [13] 84.1 µM | [14] 54.8 µM | [15] > 100 µM

CC1=C(C)C(=O)C2=C(OCCCO2)C1=O
inactive: [1] 17.2 µM | [2] 18.1 µM | [3] 18.4 µM | [5] > 10 µM | [6] 18.1 µM | [7] > 100 µM | [16] 20.8 µM | [8] 17 µM | [17] 23.8 µM | [10] > 10 µM | [11] > 10 µM | [18] > 10 µM | [12] 17 µM | [19] > 100 µM | [14] > 10 µM | [15] > 10 µM

Cc1cc2nc3c(C(OC4OC(CO)C(O)C(O)C4O)C(O)CO)nn(-c4ccccc4)c3nc2cc1C (stereo not drawn)
inactive: [1] > 100 µM | [2] > 100 µM | [3] > 100 µM | [4] > 100 µM | [5] > 100 µM | [6] > 100 µM | [7] > 100 µM | [16] > 100 µM | [17] 64 µM | [10] > 100 µM | [11] > 100 µM | [18] > 100 µM | [12] > 100 µM | [19] > 100 µM | [14] > 100 µM | [15] > 100 µM

C=CC(C)(C)n1cc(C2=C3OC(=O)C(c4cn(C(C)(C)C=C)c5ccccc45)=C3OC2=O)c2ccccc21
inactive: [1] > 100 µM | [2] > 100 µM | [3] > 100 µM | [4] > 100 µM | [5] > 100 µM | [7] > 100 µM | [16] > 100 µM | [8] > 100 µM | [17] > 100 µM | [9] > 100 µM | [10] > 100 µM | [11] > 100 µM | [18] > 100 µM | [12] > 100 µM | [13] > 100 µM | [14] > 100 µM | [15] > 100 µM

CCOc1ccc(/C=C(\Cl)c2ccc(OC)cc2)cc1
inactive: [1] > 100 µM | [3] > 100 µM | [5] > 100 µM | [6] > 100 µM | [7] > 100 µM | [16] > 100 µM | [8] > 100 µM | [17] > 100 µM | [10] > 100 µM | [11] > 100 µM | [12] > 100 µM | [13] > 100 µM | [19] > 100 µM | [14] > 100 µM

CCC(C)(C)NS(=O)(=O)c1ccccc1
inactive: [1] > 100 µM | [2] > 100 µM | [3] > 100 µM | [5] > 100 µM | [6] > 100 µM | [7] > 100 µM | [16] > 100 µM | [8] > 100 µM | [17] > 100 µM | [9] > 100 µM | [10] > 100 µM | [11] > 100 µM | [18] > 100 µM | [12] > 100 µM | [13] > 100 µM | [19] > 100 µM | [14] > 100 µM | [15] > 100 µM

COc1ccc(NC(=O)C(=O)C2NC(=S)NC2=O)c(OC)c1 (stereo not drawn)
inactive: [1] > 100 µM | [2] > 100 µM | [3] > 100 µM | [4] > 100 µM | [5] > 100 µM | [6] > 100 µM | [7] > 100 µM | [16] > 100 µM | [8] > 100 µM | [17] > 100 µM | [10] > 100 µM | [11] > 100 µM | [18] > 100 µM | [12] > 100 µM | [19] > 100 µM | [14] > 100 µM

CCCCCCCCCCNC(=S)OCCCC
inactive: [1] 25.8 µM | [3] 28.1 µM | [4] 15.9 µM | [5] 23.4 µM | [6] 22.5 µM | [7] 27.2 µM | [16] 19.5 µM | [8] 19.2 µM | [17] 36.5 µM | [9] 25.8 µM | [10] 34 µM | [11] 27.7 µM | [18] 14.7 µM | [12] 23.6 µM | [13] 18 µM | [19] 30 µM | [14] 18.3 µM | [15] 11.3 µM

CCOC(=O)c1ccc(-c2ccc(Cl)cc2)[nH]1
inactive: [1] 2.28 µM | [2] > 10 µM | [3] > 10 µM | [5] > 10 µM | [6] > 10 µM | [16] > 10 µM | [17] > 10 µM | [10] > 10 µM | [11] > 10 µM | [18] > 10 µM | [12] > 10 µM | [13] > 10 µM | [19] > 10 µM | [14] > 10 µM | [15] > 10 µM

CN(C)C(=S)/N=c1\ss/c(=N/c2ccccc2)n1C
inactive: [1] > 100 µM | [3] > 100 µM | [4] > 100 µM | [5] > 100 µM | [6] > 100 µM | [7] 48.1 µM | [16] > 100 µM | [8] > 100 µM | [17] 16.2 µM | [9] 36.2 µM | [10] 50.6 µM | [11] 40.5 µM | [18] > 100 µM | [12] > 100 µM | [19] 32.4 µM | [14] 38.5 µM | [15] > 100 µM

O=[N+]([O-])c1ccc(OCCNc2cccc3ccccc23)cc1
inactive: [1] > 100 µM | [2] > 100 µM | [3] > 100 µM | [5] > 100 µM | [6] > 100 µM | [7] > 100 µM | [16] 85.5 µM | [8] 57.1 µM | [17] 89.7 µM | [9] > 100 µM | [10] > 100 µM | [11] > 100 µM | [18] > 100 µM | [12] > 100 µM | [13] 30.5 µM | [19] > 100 µM | [14] 42.8 µM | [15] > 100 µM

C[Si](C)(C)OC1(C#N)C2C3CC4C2C(=O)C2C4C3C21 (stereo not drawn)
inactive: [2] > 100 µM | [3] > 100 µM | [5] > 100 µM | [6] > 100 µM | [7] > 100 µM | [8] > 100 µM | [17] > 100 µM | [9] > 100 µM | [10] > 100 µM | [11] > 100 µM | [18] > 100 µM | [12] > 100 µM | [13] > 100 µM | [19] > 100 µM | [14] > 100 µM

N#C/N=C(\NCCc1c[nH]c2ccccc12)NCc1ccccc1
inactive: [1] 45.6 µM | [2] 42.8 µM | [3] 25.4 µM | [4] 75.9 µM | [5] 37 µM | [6] 53.6 µM | [7] > 100 µM | [16] 37.8 µM | [8] > 100 µM | [17] 43.8 µM | [10] 61.4 µM | [18] 98.4 µM | [12] 51.1 µM | [13] 24.4 µM | [19] > 100 µM | [14] 50.9 µM | [15] > 100 µM

CSC1(C)CC2C(CC1N1CCOCC1)C2(C)C (stereo not drawn)
inactive: [2] > 100 µM | [3] > 100 µM | [5] > 100 µM | [16] > 100 µM | [17] > 100 µM | [10] > 100 µM | [11] > 100 µM | [18] > 100 µM | [12] > 100 µM | [13] > 100 µM | [19] > 100 µM | [14] > 100 µM | [15] > 100 µM

O=c1c(O)cccn1C1OC(CO)C(O)C1O (stereo not drawn)
inactive: [1] > 100 µM | [3] > 100 µM | [4] > 100 µM | [5] > 100 µM | [6] > 100 µM | [16] > 100 µM | [17] > 100 µM | [9] > 100 µM | [10] > 100 µM | [11] > 100 µM | [18] > 100 µM | [12] > 100 µM | [19] > 100 µM | [14] > 100 µM | [15] > 100 µM

CC(=O)OC1CC2C(C)(C)C(=O)C=C[C@]2(C)C2CCC3(C)C(c4ccoc4)C(=O)[C@H]4O[C@]43[C@]12C (stereo partly drawn)
inactive: [1] 31.3 µM | [3] 17.9 µM | [4] 20 µM | [6] 18 µM | [7] 22.6 µM | [8] 28.5 µM | [17] 29.8 µM | [9] 20.3 µM | [10] 22.3 µM | [11] 16.1 µM | [18] 31.6 µM | [12] 26.7 µM | [13] 17.7 µM | [19] > 100 µM | [14] 15.4 µM | [15] 26.7 µM
